Data on eleven molecules can be found in ChEMBL document CHEMBL5465560, “Selectivity Literature for EUbOPEN Chemogenomic Library” (2024).

In assay [1] the target is Beta-1 adrenergic receptor (Homo sapiens, UniProt P08588). Description: Selectivity interaction (Panel of non-epigenetic targets (kinases, GPCRs, ion channels, and transporters, Eurofins) ) EUB0000271b ADRB1. Conditions: at 1 µM.
Assay [2] concerns the target T1, Interleukin-1 receptor-associated kinase 3 (Homo sapiens) (UniProt Q9Y616).
T1 sequence (whole entry): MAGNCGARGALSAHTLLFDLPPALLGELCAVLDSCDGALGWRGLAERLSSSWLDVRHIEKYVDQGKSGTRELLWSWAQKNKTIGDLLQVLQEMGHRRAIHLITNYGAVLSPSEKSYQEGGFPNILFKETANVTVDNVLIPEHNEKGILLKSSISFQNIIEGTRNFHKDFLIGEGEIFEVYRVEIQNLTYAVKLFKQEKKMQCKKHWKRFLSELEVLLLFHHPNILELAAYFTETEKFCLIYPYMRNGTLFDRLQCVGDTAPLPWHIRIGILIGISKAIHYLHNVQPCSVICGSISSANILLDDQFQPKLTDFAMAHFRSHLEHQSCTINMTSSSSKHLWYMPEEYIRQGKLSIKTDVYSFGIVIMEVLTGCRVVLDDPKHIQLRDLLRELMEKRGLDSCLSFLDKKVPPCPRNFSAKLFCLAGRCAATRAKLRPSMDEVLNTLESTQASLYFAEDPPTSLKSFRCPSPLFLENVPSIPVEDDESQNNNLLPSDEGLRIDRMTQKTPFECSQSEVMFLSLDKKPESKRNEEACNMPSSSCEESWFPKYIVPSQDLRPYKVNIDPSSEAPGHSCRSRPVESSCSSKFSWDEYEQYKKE
Description: Selectivity interaction (KinomeScan (DiscoverX)) EUB0000666a IRAK3. The conditions noted are these: at 10 µM.

The target of assay [3] is Receptor-interacting serine/threonine-protein kinase 2 (Homo sapiens, UniProt O43353). Description: Selectivity interaction (KinomeScan (DiscoverX)) EUB0000655a RIPK2. Conditions: at 10 µM.
The target in assay [4] is T2, Casein kinase I isoform alpha-like (Homo sapiens) (UniProt Q8N752).
T2 sequence (whole entry): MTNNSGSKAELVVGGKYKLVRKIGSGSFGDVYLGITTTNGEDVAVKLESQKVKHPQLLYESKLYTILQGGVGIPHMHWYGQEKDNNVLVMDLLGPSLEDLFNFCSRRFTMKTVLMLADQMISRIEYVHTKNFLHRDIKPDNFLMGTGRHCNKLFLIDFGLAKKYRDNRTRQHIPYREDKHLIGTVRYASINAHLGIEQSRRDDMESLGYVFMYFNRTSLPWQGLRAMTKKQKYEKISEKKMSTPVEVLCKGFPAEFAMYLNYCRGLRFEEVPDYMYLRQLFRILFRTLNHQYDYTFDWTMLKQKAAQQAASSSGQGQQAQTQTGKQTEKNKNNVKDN
Description: Selectivity interaction (KinomeScan (DiscoverX)) EUB0001079a CSNK1A1L. Conditions: at 1 µM.

In assay [5] the target is Myosin light chain kinase, smooth muscle (Homo sapiens, UniProt Q15746). As to the kind of experiment: Selectivity interaction (KinomeScan (DiscoverX)) EUB0001619a MYLK. The conditions noted are these: at 1 µM.
Myosin light chain kinase, smooth muscle, sequence (Q15746 whole entry): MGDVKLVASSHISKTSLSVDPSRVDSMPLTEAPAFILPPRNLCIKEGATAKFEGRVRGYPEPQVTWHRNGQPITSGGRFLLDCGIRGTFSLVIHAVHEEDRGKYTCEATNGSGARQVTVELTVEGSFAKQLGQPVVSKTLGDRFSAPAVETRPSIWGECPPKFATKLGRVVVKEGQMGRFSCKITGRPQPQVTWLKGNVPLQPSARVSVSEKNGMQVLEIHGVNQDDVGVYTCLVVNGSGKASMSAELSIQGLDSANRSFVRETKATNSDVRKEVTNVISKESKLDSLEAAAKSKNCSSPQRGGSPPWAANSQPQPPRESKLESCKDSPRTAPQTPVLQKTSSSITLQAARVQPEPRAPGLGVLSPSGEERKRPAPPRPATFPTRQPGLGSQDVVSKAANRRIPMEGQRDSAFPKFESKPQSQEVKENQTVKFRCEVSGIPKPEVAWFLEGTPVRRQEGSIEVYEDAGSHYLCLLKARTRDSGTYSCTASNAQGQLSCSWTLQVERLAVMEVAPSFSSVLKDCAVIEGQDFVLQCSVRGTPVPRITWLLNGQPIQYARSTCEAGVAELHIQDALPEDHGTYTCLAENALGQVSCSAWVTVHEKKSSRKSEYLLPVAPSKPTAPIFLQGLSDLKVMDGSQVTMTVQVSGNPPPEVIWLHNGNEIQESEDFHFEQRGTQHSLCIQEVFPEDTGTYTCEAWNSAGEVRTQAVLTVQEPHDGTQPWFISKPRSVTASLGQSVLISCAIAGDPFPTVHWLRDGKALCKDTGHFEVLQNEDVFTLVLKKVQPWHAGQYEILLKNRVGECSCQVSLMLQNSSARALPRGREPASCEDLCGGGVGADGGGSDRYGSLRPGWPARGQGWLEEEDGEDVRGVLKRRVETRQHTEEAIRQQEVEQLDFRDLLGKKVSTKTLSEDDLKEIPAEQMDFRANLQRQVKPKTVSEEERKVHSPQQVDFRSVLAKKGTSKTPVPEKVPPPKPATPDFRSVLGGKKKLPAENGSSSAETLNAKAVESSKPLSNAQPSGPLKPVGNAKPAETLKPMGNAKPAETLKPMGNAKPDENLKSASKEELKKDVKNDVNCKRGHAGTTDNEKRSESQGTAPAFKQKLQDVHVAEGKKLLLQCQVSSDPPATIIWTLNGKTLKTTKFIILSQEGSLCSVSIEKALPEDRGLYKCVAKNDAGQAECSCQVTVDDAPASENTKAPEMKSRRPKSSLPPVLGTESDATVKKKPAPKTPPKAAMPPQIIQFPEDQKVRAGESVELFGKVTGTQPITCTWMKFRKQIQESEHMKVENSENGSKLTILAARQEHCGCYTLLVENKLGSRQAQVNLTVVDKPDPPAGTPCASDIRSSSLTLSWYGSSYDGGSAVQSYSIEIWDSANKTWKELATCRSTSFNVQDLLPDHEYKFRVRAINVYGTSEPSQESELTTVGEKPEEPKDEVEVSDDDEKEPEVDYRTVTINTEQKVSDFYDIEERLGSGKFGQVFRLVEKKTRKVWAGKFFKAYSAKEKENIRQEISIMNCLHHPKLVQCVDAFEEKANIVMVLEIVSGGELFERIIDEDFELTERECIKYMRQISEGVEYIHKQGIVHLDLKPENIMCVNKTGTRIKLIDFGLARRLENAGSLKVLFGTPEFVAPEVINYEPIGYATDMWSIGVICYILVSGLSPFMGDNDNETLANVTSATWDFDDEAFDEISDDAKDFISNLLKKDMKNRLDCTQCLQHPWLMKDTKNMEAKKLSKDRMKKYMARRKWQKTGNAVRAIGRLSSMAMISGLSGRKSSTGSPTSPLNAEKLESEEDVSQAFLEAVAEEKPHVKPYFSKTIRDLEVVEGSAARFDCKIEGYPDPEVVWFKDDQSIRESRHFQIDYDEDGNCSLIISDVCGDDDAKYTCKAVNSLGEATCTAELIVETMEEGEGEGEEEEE
Assay [6] has as its target Ephrin type-A receptor 7 (Homo sapiens) (UniProt Q15375). Description: Selectivity interaction (ActivX KiNativ screen (kinase selectivity in THP-1 cell lysates)) EUB0000639a EPHA7. The assay is classed as subcellular. Conditions: lysate.
Assay [7] is described as follows: Selectivity interaction (ActivX KiNativ screen (kinase selectivity in THP-1 cell lysates)) EUB0000639a STLK6. The conditions noted are these: Selectivity number of targets 283, Source Knowledge https://pubmed.ncbi.nlm.nih.gov/28498658/.
In assay [8] the target is Activin receptor type-2A (Homo sapiens) (UniProt P27037). Conditions: at 10 µM.
Activin receptor type-2A (Homo sapiens), sequence (P27037 whole entry): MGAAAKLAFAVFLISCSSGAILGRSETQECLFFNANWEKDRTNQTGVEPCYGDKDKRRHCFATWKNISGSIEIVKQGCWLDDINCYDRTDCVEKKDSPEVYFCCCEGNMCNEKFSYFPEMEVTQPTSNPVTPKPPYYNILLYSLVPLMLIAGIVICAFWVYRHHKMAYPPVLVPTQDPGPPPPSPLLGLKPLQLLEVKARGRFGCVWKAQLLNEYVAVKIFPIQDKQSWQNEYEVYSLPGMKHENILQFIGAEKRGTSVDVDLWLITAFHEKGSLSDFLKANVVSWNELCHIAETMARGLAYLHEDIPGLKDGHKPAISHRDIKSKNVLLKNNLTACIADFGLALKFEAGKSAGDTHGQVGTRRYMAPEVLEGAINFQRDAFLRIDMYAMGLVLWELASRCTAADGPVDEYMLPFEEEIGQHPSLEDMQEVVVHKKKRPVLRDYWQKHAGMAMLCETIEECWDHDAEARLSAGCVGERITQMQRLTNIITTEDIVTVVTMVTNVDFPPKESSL
In assay [9] the target is T3, cGMP-dependent protein kinase 1 (Homo sapiens) (UniProt Q13976).
T3 sequence (whole entry): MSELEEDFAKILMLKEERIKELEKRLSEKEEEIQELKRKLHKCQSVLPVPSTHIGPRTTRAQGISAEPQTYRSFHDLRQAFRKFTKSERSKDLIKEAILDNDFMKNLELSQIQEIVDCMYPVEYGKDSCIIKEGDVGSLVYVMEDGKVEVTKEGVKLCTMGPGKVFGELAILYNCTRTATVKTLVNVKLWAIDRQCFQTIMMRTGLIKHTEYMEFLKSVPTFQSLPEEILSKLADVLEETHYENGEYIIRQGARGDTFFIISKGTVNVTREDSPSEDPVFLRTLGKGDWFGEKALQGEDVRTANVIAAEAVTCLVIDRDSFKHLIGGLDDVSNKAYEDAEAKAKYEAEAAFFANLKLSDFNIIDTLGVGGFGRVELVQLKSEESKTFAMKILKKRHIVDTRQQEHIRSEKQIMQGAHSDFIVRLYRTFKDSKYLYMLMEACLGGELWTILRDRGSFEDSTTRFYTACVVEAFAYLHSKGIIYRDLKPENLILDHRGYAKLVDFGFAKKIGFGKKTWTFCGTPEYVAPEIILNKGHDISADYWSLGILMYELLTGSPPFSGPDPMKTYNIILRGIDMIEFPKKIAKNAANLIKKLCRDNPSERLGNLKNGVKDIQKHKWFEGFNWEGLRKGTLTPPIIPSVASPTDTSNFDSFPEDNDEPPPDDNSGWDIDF
As to the kind of experiment: Selectivity interaction (ProQinase) EUB0000171b PRKG1.

Assay [10] addresses Insulin receptor (Homo sapiens, UniProt P06213). As to the kind of experiment: Selectivity interaction (KinomeScan (DiscoverX)) EUB0000092b INSR. The conditions noted are these: at 10 µM.
In assay [11] the target is 5'-AMP-activated protein kinase catalytic subunit alpha-2 (Homo sapiens) (UniProt P54646). Description: Selectivity interaction (KinomeScan (DiscoverX)) EUB0000092b PRKAA2. Conditions: at 10 µM.
5'-AMP-activated protein kinase catalytic subunit alpha-2 (Homo sapiens), sequence (P54646 whole entry, looked up): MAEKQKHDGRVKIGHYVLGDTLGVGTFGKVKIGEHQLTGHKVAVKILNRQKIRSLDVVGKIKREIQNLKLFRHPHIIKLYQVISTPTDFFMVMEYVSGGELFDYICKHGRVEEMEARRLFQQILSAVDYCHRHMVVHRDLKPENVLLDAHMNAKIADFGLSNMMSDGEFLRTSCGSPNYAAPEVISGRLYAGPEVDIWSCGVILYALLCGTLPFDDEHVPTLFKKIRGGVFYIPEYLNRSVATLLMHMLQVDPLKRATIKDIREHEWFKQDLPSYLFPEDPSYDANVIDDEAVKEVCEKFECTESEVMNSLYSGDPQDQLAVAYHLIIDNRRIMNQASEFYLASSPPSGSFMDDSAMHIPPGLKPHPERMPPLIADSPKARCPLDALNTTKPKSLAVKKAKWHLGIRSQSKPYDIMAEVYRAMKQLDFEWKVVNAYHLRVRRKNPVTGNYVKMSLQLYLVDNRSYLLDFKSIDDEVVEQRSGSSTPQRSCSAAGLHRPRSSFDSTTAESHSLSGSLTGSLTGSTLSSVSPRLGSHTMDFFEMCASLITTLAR
For assay [12], the target named is Protein kinase C eta type (Homo sapiens) (UniProt P24723). As to the kind of experiment: Selectivity interaction (Upstate Kinase Profiler service (Millipore)) EUB0000056c PRKCH. The conditions noted are these: at 1 µM.
Protein kinase C eta type (Homo sapiens), sequence (P24723 whole entry): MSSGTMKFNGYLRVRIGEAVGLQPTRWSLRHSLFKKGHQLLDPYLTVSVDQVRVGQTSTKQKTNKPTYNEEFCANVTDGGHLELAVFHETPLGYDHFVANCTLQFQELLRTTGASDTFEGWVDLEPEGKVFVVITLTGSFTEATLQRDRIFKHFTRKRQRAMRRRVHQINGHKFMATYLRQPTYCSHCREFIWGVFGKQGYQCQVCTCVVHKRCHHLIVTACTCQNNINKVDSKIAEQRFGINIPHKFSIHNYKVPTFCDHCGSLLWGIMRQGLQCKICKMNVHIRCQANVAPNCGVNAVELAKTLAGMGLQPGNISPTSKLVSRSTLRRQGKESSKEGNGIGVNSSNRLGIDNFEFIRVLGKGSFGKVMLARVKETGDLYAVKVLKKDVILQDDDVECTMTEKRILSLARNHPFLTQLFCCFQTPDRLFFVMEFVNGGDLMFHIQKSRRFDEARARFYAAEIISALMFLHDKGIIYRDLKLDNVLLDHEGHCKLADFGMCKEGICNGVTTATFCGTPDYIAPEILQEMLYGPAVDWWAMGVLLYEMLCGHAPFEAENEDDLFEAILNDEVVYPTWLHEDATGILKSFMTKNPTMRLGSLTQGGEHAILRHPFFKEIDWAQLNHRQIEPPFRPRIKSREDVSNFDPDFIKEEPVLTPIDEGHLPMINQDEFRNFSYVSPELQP
The target in assay [13] is Histone-lysine N-methyltransferase KMT5C (Homo sapiens) (UniProt Q86Y97). Description: Selectivity interaction (Methyltransferase screen (radiometric assays, panel of 8 PRMTs, 21 protein lysine methyltransferases, 3 DNA methyltransferases, and one RNA methyltransferase)) EUB0000272b SUV420H2.
Histone-lysine N-methyltransferase KMT5C (Homo sapiens), sequence (Q86Y97 whole entry, looked up): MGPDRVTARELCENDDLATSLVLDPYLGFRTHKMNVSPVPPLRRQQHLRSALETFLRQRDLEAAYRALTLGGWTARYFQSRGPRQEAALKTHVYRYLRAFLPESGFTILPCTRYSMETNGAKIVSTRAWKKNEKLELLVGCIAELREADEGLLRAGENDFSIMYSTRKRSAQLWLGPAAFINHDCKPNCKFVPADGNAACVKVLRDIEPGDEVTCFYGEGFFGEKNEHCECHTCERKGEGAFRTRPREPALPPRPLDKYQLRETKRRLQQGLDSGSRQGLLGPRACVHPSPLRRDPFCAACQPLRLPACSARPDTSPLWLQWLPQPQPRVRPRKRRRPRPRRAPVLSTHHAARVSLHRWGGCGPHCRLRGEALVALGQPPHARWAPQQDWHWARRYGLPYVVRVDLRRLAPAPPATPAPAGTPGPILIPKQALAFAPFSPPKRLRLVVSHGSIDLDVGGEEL

Ephrin type-A receptor 7 (Homo sapiens), sequence (Q15375 28-998 limits assumed): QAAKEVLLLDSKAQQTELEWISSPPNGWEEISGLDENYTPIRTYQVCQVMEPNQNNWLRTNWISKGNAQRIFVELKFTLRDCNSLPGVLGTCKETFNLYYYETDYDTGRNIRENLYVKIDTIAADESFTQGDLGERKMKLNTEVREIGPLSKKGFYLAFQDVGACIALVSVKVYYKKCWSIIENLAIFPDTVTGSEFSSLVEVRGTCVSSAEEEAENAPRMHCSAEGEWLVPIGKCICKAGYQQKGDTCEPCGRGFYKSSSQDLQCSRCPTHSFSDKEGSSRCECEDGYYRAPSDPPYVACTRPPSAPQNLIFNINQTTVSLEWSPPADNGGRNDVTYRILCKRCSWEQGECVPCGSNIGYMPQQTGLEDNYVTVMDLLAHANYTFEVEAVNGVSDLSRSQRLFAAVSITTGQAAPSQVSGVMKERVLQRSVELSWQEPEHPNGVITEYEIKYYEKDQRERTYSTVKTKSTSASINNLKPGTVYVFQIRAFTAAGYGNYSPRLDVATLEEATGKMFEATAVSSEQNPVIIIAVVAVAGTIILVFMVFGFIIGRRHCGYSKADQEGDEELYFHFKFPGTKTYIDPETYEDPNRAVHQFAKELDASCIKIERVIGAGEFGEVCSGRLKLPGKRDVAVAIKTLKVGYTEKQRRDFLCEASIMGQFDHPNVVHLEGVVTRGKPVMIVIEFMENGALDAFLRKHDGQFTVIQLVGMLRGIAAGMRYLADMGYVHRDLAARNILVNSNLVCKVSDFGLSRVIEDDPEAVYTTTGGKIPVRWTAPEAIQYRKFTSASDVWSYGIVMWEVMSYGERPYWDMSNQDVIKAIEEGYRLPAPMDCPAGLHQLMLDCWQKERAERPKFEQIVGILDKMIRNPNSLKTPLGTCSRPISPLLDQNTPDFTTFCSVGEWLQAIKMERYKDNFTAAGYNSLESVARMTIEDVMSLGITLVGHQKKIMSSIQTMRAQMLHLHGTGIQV

For `Cc1cc(C)cc([C@@H]2c3cc(C)ccc3NC(=O)CN2C(=O)c2ccc(Br)s2)c1`, the % of inhibition in assay [1] was -13%.

Turning to `O=C(NOC[C@H](O)CO)c1ccc(F)c(F)c1Nc1ccc(I)cc1F`, the % of control in assay [2] is 100%.

`CN(C)CCOc1ccc(-c2nc(-c3ccncc3)c(-c3ccc4c(c3)CC/C4=N\O)[nH]2)cc1` registered a % of control in assay [3] of 14%.

`Nc1cnc(N2CCc3cc(S(=O)(=O)Nc4c(F)cc(Cl)cc4F)cc(N4CCCC4=O)c32)nc1` [TP-020n] had a % of control in [4] of 100%.

For `N#Cc1cccc(-c2c[nH]c3ncnc(N4CCOCC4)c23)c1`, in [5], the % of control was 100%.

On to `CC[C@@H]1[C@H](F)C(=O)N[C@@H]1COc1nccc2cc(C(N)=O)c(OC)cc12` [ZIMLOVISERTIB], for which the % of inhibition in assay [6] (at 0.01 µM) is -8.6%; in assay [6] (at 0.04 µM) it was 21.7%; in assay [6] (at 0.2 µM) it was 20.8%; in assay [6] (at 1 µM), -6.5%; in assay [6] (at 5 µM) it was 20.6%; in assay [7] (Selectivity number of off-targets 0, at 0.01 µM), 4.1%. Further, the “% of inhibition” value turned out to be 23.1% in assay [7] (Selectivity number of off-targets 0, at 0.04 µM); 11.5% in assay [7] (Selectivity number of off-targets 0, at 0.2 µM); 7.9% in assay [7] (Selectivity number of off-targets 1, at 1 µM); 11.7% in [7] (Selectivity number of off-targets 5, at 5 µM).

Molecule `CCN(CC)CCCCNc1ncc2cc(-c3cc(OC)cc(OC)c3)c(NC(=O)NC(C)(C)C)nc2n1` returned a % of control in assay [8] of 100%.

Regarding `C=CC(=O)Nc1cccc(C(=O)Nc2ccc(Nc3cc(-c4[nH]c(SC)nc4C)ccn3)cc2)c1`, the % of control came to 92% in assay [9] (at 1 µM) and 87% in [9] (at 5 µM).

In the case of `CCC(=O)N1CCN(c2ccc(-n3c(=O)ccc4cnc5ccc(-c6cnc7ccccc7c6)cc5c43)cc2C(F)(F)F)CC1`, the % of control was determined as 7.6% in assay [10] and 74% in [11].

Take `Cc1ccc(-c2ccc3c(ccc4sc5c(c43)NC[C@@H](C)NC5=O)n2)cn1`: in assay [12], the % of inhibition came out at 6%.

On to `Cc1cc(C)cc([C@H]2c3cc(C)ccc3NC(=O)CN2C(=O)c2ccc(Br)s2)c1`, for which the % of activity stood at 101% in assay [13] (at 1 µM) and 102% in assay [13] (at 10 µM).
